Data published in patent publication US10287301B2 (Achillion Pharmaceuticals, Inc., priority 2015, dated 2019).

Target: Human Factor D (Homo sapiens (Human), UniProt P00746)
Experiment: Human Factor D Assay
Format: biochemical
Settings: Human Factor D assay of Example 8; Table 2; read-out: IC50
In short: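 IC50 values derive from nonlinear regression of Factor D reaction rates against compound concentration. The enzyme, purified from human serum, is used at 80 nM final with a 5 min room-temperature compound preincubation in 50 mM Tris, 1M NaCl, pH 7.5, before 100 μM Z-L-Lys-SBzl plus 100 μM DTNB are added.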

Sequence of Human Factor D (P00746 26-253): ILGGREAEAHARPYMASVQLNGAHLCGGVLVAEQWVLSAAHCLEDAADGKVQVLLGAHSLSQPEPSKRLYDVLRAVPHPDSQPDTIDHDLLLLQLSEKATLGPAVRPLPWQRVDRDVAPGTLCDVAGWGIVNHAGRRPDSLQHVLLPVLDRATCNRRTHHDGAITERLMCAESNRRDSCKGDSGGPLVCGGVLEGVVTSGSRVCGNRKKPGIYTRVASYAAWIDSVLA

| Compound | IC50 [nM] |
| --- | --- |
| CC(=O)c1cn(CC(=O)N2C[C@H](F)C[C@H]2C(=O)Nc2cccc(-c3ccccc3Cl)c2F)c2ccc(-c3cnc(C(=O)O)nc3)cc12 [Compound 205, 5-(3-acetyl-1-(2-((2S,4R)-2-(2′-chloro-2-fluorobiphenyl-3-ylcarbamoyl)-4-fluoropyrrolidin-1-yl)-2-oxoethyl)-1H-indol-5-yl)pyrimidine-2-carboxylic acid] | < 1000 |
| CC(=O)c1cn(CC(=O)N2C[C@H](F)C[C@H]2C(=O)Nc2cccc(-c3ccncc3Cl)c2F)c2ccc(-c3cnc(C)nc3)cc12 [Compound 206, (2S,4R)-1-(2-(3-acetyl-5-(2-methylpyrimidin-5-yl)-1H-indol-1-yl)acetyl)-N-(3-(3-chloropyridin-4-yl)-2-fluorophenyl)-4-fluoropyrrolidine-2-carboxamide] | < 1000 |
| CC(=O)c1cn(CC(=O)N2C[C@H](F)C[C@H]2C(=O)Nc2cccc(-c3ccccc3Cl)c2F)c2ccc(-c3cnc(C)c(Cl)c3)cc12 [Compound 207, (2S,4R)-1-(2-(3-acetyl-5-(5-chloro-6-methylpyridin-3-yl)-1H-indol-1-yl)acetyl)-N-(2′-chloro-2-fluorobiphenyl-3-yl)-4-fluoropyrrolidine-2-carboxamide] | < 1000 |
| NC(=O)c1nn(CC(=O)N2C[C@H](F)C[C@H]2C(=O)Nc2cccc(-c3ccccc3Cl)c2F)cc1-c1ccsc1 [Compound 208, 1-(2-((2S,4R)-2-(2′-chloro-2-fluorobiphenyl-3-ylcarbamoyl)-4-fluoropyrrolidin-1-yl)-2-oxoethyl)-4-(thiophen-3-yl)-1H-pyrazole-3-carboxamide] | 1000 to 10000 |
| CC(=O)c1cn(CC(=O)N2C[C@H](F)C[C@H]2C(=O)Nc2cccc(-c3ccccc3Cl)c2F)c2ccc(-c3cnc(C(N)=O)nc3)cc12 [Compound 209, 5-(3-acetyl-1-(2-((2S,4R)-2-(2′-chloro-2-fluorobiphenyl-3-ylcarbamoyl)-4-fluoropyrrolidin-1-yl)-2-oxoethyl)-1H-indol-5-yl)pyrimidine-2-carboxamide] | < 1000 |
| CC(=O)c1cn(CC(=O)N2C[C@H](F)C[C@H]2C(=O)Nc2cccc(-c3ccccc3Cl)c2F)c2ccc(-c3cnc(S(C)(=O)=O)nc3)cc12 [Compound 210, (2S,4R)-1-(2-(3-acetyl-5-(2-(methylsulfonyl)pyrimidin-5-yl)-1H-indol-1-yl)acetyl)-N-(2′-chloro-2-fluorobiphenyl-3-yl)-4-fluoropyrrolidine-2-carboxamide] | < 1000 |
| CC(=O)c1cn(CC(=O)N2C[C@H](F)C[C@H]2C(=O)Nc2cccc(-c3ccccc3Cl)c2F)c2ccc(-c3cnc(C(=O)NC4CC4)nc3)cc12 [Compound 211, 5-(3-acetyl-1-(2-((2S,4R)-2-(2′-chloro-2-fluorobiphenyl-3-ylcarbamoyl)-4-fluoropyrrolidin-1-yl)-2-oxoethyl)-1H-indol-5-yl)-N-cyclopropylpyrimidine-2-carboxamide] | < 1000 |
| COCCOCCNC(=O)c1ncc(-c2ccc3c(c2)c(C(C)=O)cn3CC(=O)N2C[C@H](F)C[C@H]2C(=O)Nc2cccc(-c3ccccc3Cl)c2F)cn1 [Compound 212, 5-(3-acetyl-1-(2-((2S,4R)-2-(2′-chloro-2-fluorobiphenyl-3-ylcarbamoyl)-4-fluoropyrrolidin-1-yl)-2-oxoethyl)-1H-indol-5-yl)-N-(2-(2-methoxyethoxy)ethyl)pyrimidine-2-carboxamide] | < 1000 |
| CC(=O)c1cn(CC(=O)N2C[C@H](F)C[C@H]2C(=O)Nc2cccc(Br)n2)c2ccc(-c3cnc(C(N)=O)nc3)cc12 [Compound 213, 5-(3-acetyl-1-(2-((2S,4R)-2-(6-bromopyridin-2-ylcarbamoyl)-4-fluoropyrrolidin-1-yl)-2-oxoethyl)-1H-indol-5-yl)pyrimidine-2-carboxamide] | < 1000 |
| CC(=O)c1nn(CC(=O)N2C[C@H](F)C[C@H]2C(=O)Nc2cccc(-c3ccc4[nH]cnc4c3Cl)c2F)c2ccc(-c3cnc(C)nc3)cc12 [Compound 214, (2S,4R)-1-(2-(3-acetyl-5-(2-methylpyrimidin-5-yl)-1H-indazol-1-yl)acetyl)-N-(3-(4-chloro-1H-benzo[d]imidazol-5-yl)-2-fluorophenyl)-4-fluoropyrrolidine-2-carboxamide] | < 1000 |
| CC(=O)c1cn(CC(=O)N2C[C@H](F)C[C@H]2C(=O)Nc2cccc(-c3ccccc3Cl)c2F)c2ccc(-c3cnc(N)nc3)cc12 [Compound 215, (2S,4R)-1-(2-(3-acetyl-5-(2-aminopyrimidin-5-yl)-1H-indol-1-yl)acetyl)-N-(2′-chloro-2-fluorobiphenyl-3-yl)-4-fluoropyrrolidine-2-carboxamide] | < 1000 |
| CC(=O)c1cn(CC(=O)N2C[C@H](F)C[C@H]2C(=O)Nc2cccc(Br)n2)c2ccc(-c3cnc(C4CC4)nc3)cc12 [Compound 216, (2S,4R)-1-(2-(3-acetyl-5-(2-cyclopropylpyrimidin-5-yl)-1H-indol-1-yl)acetyl)-N-(6-bromopyridin-2-yl)-4-fluoropyrrolidine-2-carboxamide] | < 1000 |
| CC(=O)c1ncc(-c2ccc3c(c2)c(C(C)=O)cn3CC(=O)N2C[C@H](F)C[C@H]2C(=O)Nc2cccc(Br)n2)cn1 [Compound 218, (2S,4R)-1-(2-(3-acetyl-5-(2-acetylpyrimidin-5-yl)-1H-indol-1-yl)acetyl)-N-(6-bromopyridin-2-yl)-4-fluoropyrrolidine-2-carboxamide] | < 1000 |
| CC(=O)c1cn(CC(=O)N2C[C@H](F)C[C@H]2C(=O)Nc2cccc(Br)n2)c2ccc(-c3cnc(N)nc3)cc12 [Compound 219, (2S,4R)-1-(2-(3-acetyl-5-(2-aminopyrimidin-5-yl)-1H-indol-1-yl)acetyl)-N-(6-bromopyridin-2-yl)-4-fluoropyrrolidine-2-carboxamide] | < 1000 |
| CC(=O)c1nn(CC(=O)N2C[C@H](F)C[C@H]2C(=O)Nc2cccc(OC(F)(F)F)c2F)c2ccc(-c3cnc(C)nc3)cc12 [Compound 220, (2S,4R)-1-(2-(3-acetyl-5-(2-methylpyrimidin-5-yl)-1H-indazol-1-yl)acetyl)-4-fluoro-N-(2-fluoro-3-(trifluoromethoxy)phenyl)pyrrolidine-2-carboxamide] | < 1000 |
| CC(=O)c1cn(CC(=O)N2N=CCC2C(=O)Nc2cccc(-c3ccccc3Cl)c2F)c2ccc(-c3cnc(C)nc3)cc12 (stereo not shown) [Compound 221, 1-(2-(3-acetyl-5-(2-methylpyrimidin-5-yl)-1H-indol-1-yl)acetyl)-N-(2′-chloro-2-fluorobiphenyl-3-yl)-4,5-dihydro-1H-pyrazole-5-carboxamide] | < 1000 |
| CC(=O)c1cn(CC(=O)N2C[C@H](F)C[C@H]2C(=O)Nc2cccc(Br)n2)c2ccc(-c3cnc4nccn4c3)cc12 [Compound 222, (2S,4R)-1-(2-(3-acetyl-5-(imidazo[1,2-a]pyrimidin-6-yl)-1H-indol-1-yl)acetyl)-N-(6-bromopyridin-2-yl)-4-fluoropyrrolidine-2-carboxamide] | < 1000 |
| CC(=O)c1cn(CC(=O)N2C[C@H](F)C[C@H]2C(=O)Nc2cccc(Cl)n2)c2ccc(-c3cnc4ccnn4c3)cc12 [Compound 223, (2S,4R)-1-(2-(3-acetyl-5-(pyrazolo[1,5-a]pyrimidin-6-yl)-1H-indol-1-yl)acetyl)-N-(6-chloropyridin-2-yl)-4-fluoropyrrolidine-2-carboxamide] | < 1000 |
| CC(=O)c1cn(CC(=O)N2C[C@H](F)C[C@H]2C(=O)Nc2cccc(OC(F)(F)F)c2F)c2ccc(-c3cnc4ccnn4c3)cc12 [Compound 224, (2S,4R)-1-(2-(3-acetyl-5-(pyrazolo[1,5-a]pyrimidin-6-yl)-1H-indol-1-yl)acetyl)-4-fluoro-N-(2-fluoro-3-(trifluoromethoxy)phenyl)pyrrolidine-2-carboxamide] | < 1000 |
| CC(=O)c1nn(CC(=O)N2C[C@H](F)C[C@H]2C(=O)Nc2cccc(Cl)n2)c2ccc(-c3cnc(C)nc3)cc12 [Compound 225, (2S,4R)-1-(2-(3-acetyl-5-(2-methylpyrimidin-5-yl)-1H-indazol-1-yl)acetyl)-N-(6-chloropyridin-2-yl)-4-fluoropyrrolidine-2-carboxamide] | < 1000 |
| CC(=O)c1nn(CC(=O)N2C[C@H](F)C[C@H]2C(=O)NCc2cccc(Cl)c2F)c2ccc(-c3cnc(C)nc3)cc12 [Compound 226, (2S,4R)-1-(2-(3-acetyl-5-(2-methylpyrimidin-5-yl)-1H-indazol-1-yl)acetyl)-N-(3-chloro-2-fluorobenzyl)-4-fluoropyrrolidine-2-carboxamide] | < 1000 |
| CC(=O)c1cn(CC(=O)N2NCCC2C(=O)Nc2cccc(-c3ccccc3Cl)c2F)c2ccc(-c3cnc(C)nc3)cc12 (stereo not shown) [Compound 227, 2-(2-(3-acetyl-5-(2-methylpyrimidin-5-yl)-1H-indol-1-yl)acetyl)-N-(2′-chloro-2-fluorobiphenyl-3-yl)pyrazolidine-3-carboxamide] | < 1000 |
| CC(=O)c1nn(CC(=O)N2C[C@H](F)C[C@H]2C(=O)Nc2nccc(-c3sccc3Cl)n2)c2ccc(-c3cnc(C)nc3)cc12 [Compound 228, (2S,4R)-1-(2-(3-acetyl-5-(2-methylpyrimidin-5-yl)-1H-indazol-1-yl)acetyl)-N-(4-(3-chlorothiophen-2-yl)pyrimidin-2-yl)-4-fluoropyrrolidine-2-carboxamide] | < 1000 |
| CC(=O)c1nn(CC(=O)N2C[C@H](F)C[C@H]2C(=O)Nc2cc(Cl)sc2C)c2ccc(-c3cnc(C)nc3)cc12 [Compound 229, (2S,4R)-1-(2-(3-acetyl-5-(2-methylpyrimidin-5-yl)-1H-indazol-1-yl)acetyl)-N-(5-chloro-2-methylthiophen-3-yl)-4-fluoropyrrolidine-2-carboxamide] | < 1000 |
| CC(=O)c1nn(CC(=O)N2CCC[C@H]2C(=O)Nc2cccc(Br)n2)c2ccc(-c3cnc(C)nc3)cc12 [Compound 230, (S)-1-(2-(3-Acetyl-5-(2-methylpyrimidin-5-yl)-1H-indazol-1-yl)acetyl)-N-(6-bromopyridin-2-yl)pyrrolidine-2-carboxamide] | < 1000 |
